Measurements as given in article PMC7991740, “Introduction of Non-natural Amino Acids Into T-Cell Epitopes to Mitigate Peptide-Specific T-Cell Responses” (Frontiers in Immunology, 2021).
Read-outs that look alike come from different tables or passages of the source. *1 amine or outer side, *2 acyl side, *3 side chain or, on linkers, in order; H or OH if unused. Where a SMILES comes first, the peptide text is derived from it. [ ]: non-standard residue; d: D form. X1 = NCCCC[C@@H](C(=O)[*:2])N(C[C@@H]1CCCN1)[*:1]; Aib = CC(C)(N)C(=O)O

How the values were obtained:
Test in all cases: biochemical
Format in all cases: binding
HLA-DRB1*01:01 = target: T1, HLA-DRB1*01:01 (Homo sapiens, UniProt P01903+P01911, A100R/D57E/F55L/F60I/F76Y/I96L/L162R/M171V/P40L/Q125E/R42F/V115G/Y59C)
T1 construct: Human leukocyte antigen-DR molecules were immunopurified from homozygous EBV B lymphoblastoid cells; endogenous in cells

HLA-DRB5*01:01 = target: T2, HLA-DRB5*01:01 (Homo sapiens, UniProt P01903+Q30154)
T2 construct: Human leukocyte antigen-DR molecules were immunopurified from homozygous EBV B lymphoblastoid cells; endogenous in cells

HLA-DRB1*07:01 = HLA-DRB1*07:01 (Homo sapiens, UniProt P01903+P01911, A100R/A102G/A103Q/D57E/D86V/E43K/F76Y/K127E/L162R/M171V/P40G/Q125H/Q99D/R33Q/R42Y/R54Q/S133A/S66F/T210M/V115G/Y107V/Y59L/Y89S)
HLA-DRB1*04:01 = target: T3, HLA-DRB1*04:01 (Homo sapiens, UniProt P01903+P01911, A100K/A169T/F76Y/I96L/K127E/L162R/M171V/N62H/P40V/Q125Y/R42H/S133A/S149N/S66Y/V115G/V209L/W38E)
T3 construct: Human leukocyte antigen-DR molecules were immunopurified from homozygous EBV B lymphoblastoid cells; endogenous in cells

HLA-DRB1*11:01 = HLA-DRB1*11:01 (Homo sapiens, UniProt P01903+P01911, A100R/A169T/A87E/I96F/K41T/L162R/M171V/P40S/Q125H/Q178H/Q39Y/Q99D/R42S/S66Y/T262R/V115G/W38E)
[1] = […], mean of at least two independent experiments, read-out: IC50 DRB1*0101
[2] = […], mean of at least two independent experiments, read-out: IC50 DRB5*0101
[3] = […], mean of at least two independent experiments, read-out: IC50 DRB1*0701 (converted)
[4] = […], mean of at least two independent experiments, read-out: IC50 DRB1*0401
[5] = […], mean of at least two independent experiments, read-out: IC50 DRB1*1101 (converted)

HLA-DRB1*11:01, sequence (P01903 26-254 limits assumed, other chains not shown): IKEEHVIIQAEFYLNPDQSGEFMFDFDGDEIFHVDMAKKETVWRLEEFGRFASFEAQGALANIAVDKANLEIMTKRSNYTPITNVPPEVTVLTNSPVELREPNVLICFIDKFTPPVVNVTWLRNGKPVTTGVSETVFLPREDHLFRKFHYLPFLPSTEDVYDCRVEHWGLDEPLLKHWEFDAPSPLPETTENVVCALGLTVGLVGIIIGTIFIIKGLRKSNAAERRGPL

Row | SMILES | IC50 (HLA-DRB1*01:01; [1]) [nM] | IC50 (HLA-DRB5*01:01; [2]) [nM] | IC50 (HLA-DRB1*07:01; [3]) [nM] | IC50 (HLA-DRB1*04:01; [4]) [nM] | IC50 (HLA-DRB1*11:01; [5]) [nM] | IC50 (HLA-DRB1*01:01; IC50 DRB1*0101) [nM] | IC50 (HLA-DRB5*01:01) [nM] | IC50 (HLA-DRB1*07:01) [nM] | IC50 (HLA-DRB1*04:01) [nM] | IC50 (HLA-DRB1*11:01) [nM]
1 | CC(C)C[C@H](NC(=O)[C@H](CCCCN)NC(=O)[C@H](CC(C)C)NC(=O)[C@@H](NC(=O)[C@H](CC(N)=O)NC(=O)[C@H](CCC(N)=O)NC(=O)[C@H](CCCCN)NC(=O)[C@@H](NC(=O)[C@H](Cc1ccc(O)cc1)NC(=O)C(C)(C)NC(=O)[C@@H]1CCCN1)C(C)C)[C@@H](C)O)C(=O)N[C@@H](C)C(=O)N[C@H](C(=O)O)[C@@H](C)O [Aib2] (H-P[Aib]YVKQNTLKLAT-OH) | 8 | 500 | 7700 | 95 | 4000 | – | – | – | – | –
2 | CC(C)C[C@H](NC(=O)[C@H](CCCCN)NC(=O)[C@H](CC(C)C)NC(=O)[C@@H](NC(=O)C(C)(C)NC(=O)[C@H](CCC(N)=O)NC(=O)[C@H](CCCCN)NC(=O)[C@@H](NC(=O)[C@H](Cc1ccc(O)cc1)NC(=O)[C@H](CCCCN)NC(=O)[C@@H]1CCCN1)C(C)C)[C@@H](C)O)C(=O)N[C@@H](C)C(=O)N[C@H](C(=O)O)[C@@H](C)O [Aib7] (H-PKYVKQ[Aib]TLKLAT-OH) | 6.8 | 900 | 4200 | 45 | 6000 | – | – | – | – | –
3 | CC(C)C[C@H](NC(=O)[C@H](CCCCN)NC(=O)[C@H](CC(C)C)NC(=O)[C@@H](NC(=O)[C@H](CC(N)=O)NC(=O)[C@H](CCC(N)=O)NC(=O)[C@H](CCCCN)NC(=O)CN(C(=O)[C@H](Cc1ccc(O)cc1)NC(=O)[C@H](CCCCN)NC(=O)[C@@H]1CCCN1)C(C)C)[C@@H](C)O)C(=O)N[C@@H](C)C(=O)N[C@H](C(=O)O)[C@@H](C)O [Pep4] | 5 | 280 | 710 | 14 | 6000 | – | – | – | – | –
4 | CC(C)C[C@H](NC(=O)[C@H](CCCCN)NC(=O)[C@H](CC(C)C)NC(=O)[C@@H](NC(=O)[C@H](CC(N)=O)NC(=O)[C@H](CCC(N)=O)NC(=O)C(C)(C)NC(=O)[C@@H](NC(=O)[C@H](Cc1ccc(O)cc1)NC(=O)[C@H](CCCCN)NC(=O)[C@@H]1CCCN1)C(C)C)[C@@H](C)O)C(=O)N[C@@H](C)C(=O)N[C@H](C(=O)O)[C@@H](C)O [Aib5] | 1 | 600 | 780 | 30 | 300 | – | – | – | – | –
5 | CC(C)C[C@H](NC(=O)[C@H](CCCCN)NC(=O)[C@H](CC(C)C)NC(=O)[C@@H](NC(=O)[C@H](CC(N)=O)NC(=O)[C@H](CCC(N)=O)NC(=O)[C@H](CCCCN)NC(=O)C(C)(C)NC(=O)[C@H](Cc1ccc(O)cc1)NC(=O)[C@H](CCCCN)NC(=O)[C@@H]1CCCN1)[C@@H](C)O)C(=O)N[C@@H](C)C(=O)N[C@H](C(=O)O)[C@@H](C)O [Aib4] | 10 | 280 | 6000 | 75 | 4000 | – | – | – | – | –
6 | CC(C)C[C@H](NC(=O)[C@H](CCCCN)NC(=O)[C@H](CC(C)C)NC(=O)[C@@H](NC(=O)[C@H](CC(N)=O)NC(=O)[C@H](CCC(N)=O)NC(=O)[C@H](CCCCN)NC(=O)[C@@H](NC(=O)[C@H](Cc1ccc(O)cc1)NC(=O)[C@H](CCCCN)NC(=O)[C@@H]1CCCN1)C(C)C)[C@@H](C)O)C(=O)NC(C)(C)C(=O)N[C@H](C(=O)O)[C@@H](C)O [Aib12] | 0.7 | 5 | 9 | 32 | 100 | – | – | – | – | –
7 | CC(C)C[C@H](NC(=O)[C@H](CCCCN)NC(=O)[C@H](CC(C)C)NC(=O)[C@@H](NC(=O)[C@H](CC(N)=O)NC(=O)CN(CCC(N)=O)C(=O)[C@H](CCCCN)NC(=O)[C@@H](NC(=O)[C@H](Cc1ccc(O)cc1)NC(=O)[C@H](CCCCN)NC(=O)[C@@H]1CCCN1)C(C)C)[C@@H](C)O)C(=O)N[C@@H](C)C(=O)N[C@H](C(=O)O)[C@@H](C)O [Pep6] | 0.4 | 10 | 290 | 82 | 45 | – | – | – | – | –
8 | CC(C)C[C@H](NC(=O)[C@H](CCCCN)NC(=O)[C@H](CC(C)C)NC(=O)[C@@H](NC(=O)CN(CC(N)=O)C(=O)[C@H](CCC(N)=O)NC(=O)[C@H](CCCCN)NC(=O)[C@@H](NC(=O)[C@H](Cc1ccc(O)cc1)NC(=O)[C@H](CCCCN)NC(=O)[C@@H]1CCCN1)C(C)C)[C@@H](C)O)C(=O)N[C@@H](C)C(=O)N[C@H](C(=O)O)[C@@H](C)O [Pep7] | – | – | – | – | – | 0.3 | 15 | 16 | 450 | 200
9 | CC(C)C[C@H](NC(=O)[C@H](CCCCN)NC(=O)[C@H](CC(C)C)NC(=O)[C@@H](NC(=O)[C@H](CC(N)=O)NC(=O)[C@H](CCC(N)=O)NC(=O)[C@H](CCCCN)NC(=O)[C@@H](NC(=O)[C@H](Cc1ccc(O)cc1)NC(=O)[C@H](CCCCN)NC(=O)C(C)(C)N)C(C)C)[C@@H](C)O)C(=O)N[C@@H](C)C(=O)N[C@H](C(=O)O)[C@@H](C)O [Aib1] (H-[Aib]KYVKQNTLKLAT-OH) | 0.3 | 3 | 11 | 20 | 18 | – | – | – | – | –
10 | CC(C)C[C@H](NC(=O)[C@H](CCCCN)NC(=O)[C@H](CC(C)C)NC(=O)[C@@H](NC(=O)[C@H](CC(N)=O)NC(=O)[C@H](CCC(N)=O)NC(=O)[C@H](CCCCN)NC(=O)[C@@H](NC(=O)[C@H](Cc1ccc(O)cc1)NC(=O)[C@H](CCCCN)NC[C@@H]1CCCN1)C(C)C)[C@@H](C)O)C(=O)N[C@@H](C)C(=O)N[C@H](C(=O)O)[C@@H](C)O [Rd1] (H-[X1]YVKQNTLKLAT-OH; N-terminus and C-terminus assumed) | 2 | 120 | 140 | 25 | 2500 | – | – | – | – | –
11 | CC(C)C[C@H](NC(=O)[C@H](CCCCN)NC(=O)[C@H](CC(C)C)NC(=O)[C@@H](NC(=O)[C@H](CC(N)=O)NC(=O)[C@H](CCC(N)=O)NC(=O)[C@H](CCCCN)NC(=O)[C@@H](NC(=O)CN(Cc1ccc(O)cc1)C(=O)[C@H](CCCCN)NC(=O)[C@@H]1CCCN1)C(C)C)[C@@H](C)O)C(=O)N[C@@H](C)C(=O)N[C@H](C(=O)O)[C@@H](C)O [Pep3] | 4000 | 14000 | > 100000 | > 10000 | > 100000 | – | – | – | – | –
12 | CC(C)C[C@H](NC(=O)[C@@H](NC(=O)[C@H](CC(N)=O)NC(=O)[C@H](CCC(N)=O)NC(=O)[C@H](CCCCN)NC(=O)[C@@H](NC(=O)[C@H](Cc1ccc(O)cc1)NC(=O)[C@H](CCCCN)NC(=O)[C@@H]1CCCN1)C(C)C)[C@@H](C)O)C(=O)NC(C)(C)C(=O)N[C@@H](CC(C)C)C(=O)N[C@@H](C)C(=O)N[C@H](C(=O)O)[C@@H](C)O [Aib10] | 9 | 5000 | 16000 | 490 | 8000 | – | – | – | – | –
13 | CC(C)C[C@H](NC(=O)[C@H](CCCCN)NC(=O)[C@H](CC(C)C)NC(=O)[C@@H](NC(=O)[C@H](CC(N)=O)NC(=O)C(C)(C)NC(=O)[C@H](CCCCN)NC(=O)[C@@H](NC(=O)[C@H](Cc1ccc(O)cc1)NC(=O)[C@H](CCCCN)NC(=O)[C@@H]1CCCN1)C(C)C)[C@@H](C)O)C(=O)N[C@@H](C)C(=O)N[C@H](C(=O)O)[C@@H](C)O [Aib6] | 0.7 | 5 | 75 | 55000 | 150 | – | – | – | – | –
14 | CC(C)C[C@H](NC(=O)[C@H](CCCCN)NC(=O)[C@H](CC(C)C)NC(=O)C(C)(C)NC(=O)[C@H](CC(N)=O)NC(=O)[C@H](CCC(N)=O)NC(=O)[C@H](CCCCN)NC(=O)[C@@H](NC(=O)[C@H](Cc1ccc(O)cc1)NC(=O)[C@H](CCCCN)NC(=O)[C@@H]1CCCN1)C(C)C)C(=O)N[C@@H](C)C(=O)N[C@H](C(=O)O)[C@@H](C)O [Aib8] | 0.8 | 140 | 90 | 140 | 550 | – | – | – | – | –
15 | CC(C)C[C@H](NC(=O)[C@H](CCCCN)NC(=O)[C@H](CC(C)C)NC(=O)[C@@H](NC(=O)[C@H](CC(N)=O)NC(=O)[C@H](CCC(N)=O)NC(=O)[C@H](CCCCN)NC(=O)[C@@H](NC(=O)C(C)(C)NC(=O)[C@H](CCCCN)NC(=O)[C@@H]1CCCN1)C(C)C)[C@@H](C)O)C(=O)N[C@@H](C)C(=O)N[C@H](C(=O)O)[C@@H](C)O [Aib3] | 60 | > 10000 | 460 | > 100000 | > 100000 | – | – | – | – | –
16 | CC(C)C[C@H](NC(=O)[C@@H](NC(=O)[C@H](CC(N)=O)NC(=O)[C@H](CCC(N)=O)NC(=O)[C@H](CCCCN)NC(=O)[C@@H](NC(=O)[C@H](Cc1ccc(O)cc1)NC(=O)[C@H](CCCCN)NC(=O)[C@@H]1CCCN1)C(C)C)[C@@H](C)O)C(=O)N[C@@H](CCCCN)C(=O)NC(C)(C)C(=O)N[C@@H](C)C(=O)N[C@H](C(=O)O)[C@@H](C)O [Aib11] | 20 | 95 | 3000 | 25 | 350 | – | – | – | – | –
